Laboratory results from patent EP4663632A1, “COMPOUNDS USEFUL FOR THE MODULATION OF THE ACTIVITY OF STING” (Sulis Therapeutics ApS, priority 2024, dated 2025).

Key:
STING [1] = target: T1, STING (Homo sapiens, UniProt Q86WV6); assay: Western Blot analysis for STING degradation (DC50) in HFF-1 cells; type: cell-based; design: host or cells: HFF-1 human foreskin fibroblasts; details: 24h; reference protein beta-actin
Description: To assess STING degradation in human foreskin fibroblasts HFF-1 cells (ATCC, SCRC-1041) cells were seeded at a density of 60.000 cells/well in 24-well Nunclon Delta surface treated culture plate in DMEM growth medium (supplemented with 10% FBS, 1% Pen-strep). Cells were incubated over-night at 37°C 5% CO2 to allow adhesion. Next day growth medium was renewed and a 5x concentration of test compounds (2.5% DMSO) diluted in growth medium were added to the appropriate well. The final DMSO concentration were 0.5%. Cell culture plates were returned to the incubator for additional 24h.
For cell lysing for Western Blot analysis cell culture plates were brought to ice, supernatant was removed by aspiration and cells washed 2x in ice-cold DPBS. Cells were lysed in 65 µL of RIPA buffer supplemented with cOmplete ULTRA Tablets protease inhibitor cocktail, PIERCE Phosphatase inhibitor mini tablet, Benzonase and 10mM NaF for 20 min on ice. Lysates were collected, cleared by centrifugation (13000xg for 10 min at 4°C). Samples were either analysed directly or stored at -80°C until analysis.
For Western Blotting, total protein concentration in each lysate was determined using PIERCE Gold BCA Assay kit according to manufactures protocol. 6 µg of total protein was mixed with 2x Laemmli buffer containing DTT, boiled for 5 min at 95°C, cooled on ice and loaded into each well of a 4-20% Criterion TGX gel. Proteins were separated by electrophoresis, by running for 1h at 150V. After separation proteins were blotted onto a PVDF membrane by semi-dry transfer using Trans-Blot turbo system at pre-defined BioRad MIDI protocol; 25V, 1A (fixed) for 30 min. Membranes were blocked for 1h in 5% skim milk in TBS-T20 on a rocker at room temperature followed by washing and exposure to primary antibodies against human STING 1:1000 (Cell Signalling, #13647) or loading controls Vinculin 1:1000 (Cell Signalling, #13901) or beta-Actin 1:10000 (Sigma, A5441) all diluted in 5% BSA in TBS-T20. Membranes were probed over night at 4°C on a rocker. Membranes were washed 3x in TBS-T20 followed by exposure to secondary HRP-conjugated anti-rabbit antibody or HRP-conjugated anti-mouse antibody diluted 1:10000 in 5% skim milk in TBS-T20 as appropriate. Membranes were incubated for 1h at room temperature on a rocker, then washed 3x in TBS-T20.
For generating DC50 values, the intensity of individual bands was measured using imaged and expression levels were calculated as a ratio of STING intensities vs. Reference protein intensities and normalized to DMSO control. The normalized ratios were plotted on a XY curve in GraphPad Prism where DC50 was estimated using a 4-parameter non-linear regression fitting curve.

[2] = target: T2, C-terminal domain (CTD) of human STING (Homo sapiens, UniProt Q86WV6); assay: STING binding FP assay III; design: recombinant human STING protein (155-379); details: 10 nM STING (FP assay III according to the text); read-out: STING binding FP assay II, IC50
T2 sequence (Q86WV6 155-379): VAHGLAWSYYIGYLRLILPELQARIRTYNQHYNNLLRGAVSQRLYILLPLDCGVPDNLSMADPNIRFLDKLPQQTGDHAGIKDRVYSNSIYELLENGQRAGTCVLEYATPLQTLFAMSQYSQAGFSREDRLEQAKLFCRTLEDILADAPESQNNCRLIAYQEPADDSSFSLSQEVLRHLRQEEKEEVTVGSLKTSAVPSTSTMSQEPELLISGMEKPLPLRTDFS
Description: (§1) The interaction between molecules and the C-terminal domain (CTD) of human STING was evaluated using a competition binding assay. In this assay, recombinant human STING protein (155-379) and a STING binding fluorescent probe were employed. Upon binding of the probe to STING, the rotation of the fluorescent probe is slowed due to the larger molecular size of the protein-bound complex. As a result, emitted light retains its plane of polarization, leading to an increase in fluorescence polarization. Molecules competing for the probe binding site displace the probe, which leads to rapid randomization of the polarization plane of the emitted light and a subsequent decrease in measured fluorescence polarization signal. Change in polarization was measured, allowing a comparative evaluation of the binding affinities of different compounds to the target protein.
(§2) The assay was performed in 96-well plates (ThermoFisher, cat.# 237108) containing 100µl : 10 µL test compound in 10% DMSO and buffer A (150 mM NaCl, 50 mM HEPES pH 7.5, 1 mM DTT) + 90 µL prepared master mix solution of: 4 nM fluorescein-labelled STING ligand (Probe 1; synthesis described above) in buffer A + 0.055% Tween-20 (v/v) and 35 nM STING in buffer A. Post mixing, plates were agitated at 600rpm and incubated for 20 min at room temperature. Subsequent measurements of the fluorescence polarization signal were made on a BioTek Synergy-H1 plate reader, using a polarization filter; Exc: 485/20 nm, Em: […]) with a gain-setting of 75. IC50 values were determined using a standard non-linear regression four-parameter curve fit in Graphpad Prism.
The procedure for STING binding FP assay III is the same as described for STING binding FP assay I, except for a lower STING concentration. In STING binding FP assay III, a concentration of 10 nM STING in buffer A was used.

[3] = target: T2, C-terminal domain (CTD) of human STING; assay: STING binding FP assay II; design: recombinant human STING protein (155-379); details: 7 nM STING
Description: as §1, §2
The procedure for STING binding FP assay II is the same as described for STING binding FP assay I, except for a lower STING concentration. In STING binding FP assay II, a concentration of 7 nM STING in buffer A was used.

STING [4] = target: T1, STING; assay: Western Blot analysis of inhibition of STING activation in HFF-1 cells; type: cell-based; design: host or cells: HFF-1 human foreskin fibroblasts; details: for STING, TBK1 and IRF1 phosphorylation: 2 h or 5 h
Description: To assess whether S1 STING ligands inhibit STING activation, primary human skin fibroblasts (Figure 5) or HFF-1 cells (Figure 6) were treated with various compounds which comprise only an S1 ligand domain and a Linker domain before undergoing Western Blot analysis as described below.
The cells were lysed and analysed on WB. […] The WB membrane was probed for p-STING, STING, p-IRF3, p-TBK1, and Vinculin.

T1 sequence (Q86WV6 whole entry): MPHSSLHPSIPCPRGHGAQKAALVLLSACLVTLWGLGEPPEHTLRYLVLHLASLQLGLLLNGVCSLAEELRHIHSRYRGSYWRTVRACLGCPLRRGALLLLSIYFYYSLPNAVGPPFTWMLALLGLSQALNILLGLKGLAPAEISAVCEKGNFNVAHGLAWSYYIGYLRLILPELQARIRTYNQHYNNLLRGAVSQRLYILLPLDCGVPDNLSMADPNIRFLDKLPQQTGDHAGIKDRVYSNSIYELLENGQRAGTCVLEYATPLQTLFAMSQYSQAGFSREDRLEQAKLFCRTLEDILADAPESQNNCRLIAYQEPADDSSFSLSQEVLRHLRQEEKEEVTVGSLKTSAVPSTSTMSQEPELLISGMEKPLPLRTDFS

| SMILES | DC50 (STING [1]) | IC50 [2] | IC50 [3] | further results |
| --- | --- | --- | --- | --- |
| CCn1nc(C)cc1C(=O)N=c1n(C)c2cc(C(N)=O)ccc2n1CCC(CCn1c(=NC(=O)c2cc(C)nn2CC)n(C)c2cc(C(N)=O)ccc21)OCC(=O)NCCOCCOCCOCCOCCOCCNc1cccc2c1C(=O)N(C1CCC(=O)NC1=O)C2=O (stereo not shown) [Example 3, 1-(3-{[N-2-(2-{2-[2-(2-{2-[2-(2,6-Dioxo-3-piperidyl)-1,3-dioxo-4-isoindolinylamino]ethoxy}ethoxy)ethoxy]ethoxy}ethoxy)ethylcarbamoyl]methoxy}-5-{5-carbamoyl-2-[(1-ethyl-3-methyl-5-pyrazolyl)carbonylimino]-3-methyl-2,3-dihydro-1H-1 ,3-benzimidazol-1-yl}pentyl)-2-[(1-ethyl-3-methyl-5-pyrazolyl)carbonylimino]-3-methyl-2,3-dihydro-1H-1,3-benzimidazole-5-carboxamide] | 200 to 1000 nM | – | – | – |
| CCn1nc(C)cc1C(=O)N=c1n(C)c2cc(C(N)=O)ccc2n1CCC(CCn1c(=NC(=O)c2cc(C)nn2CC)n(C)c2cc(C(N)=O)ccc21)OCC(=O)NCCOCCOCCOCCOCCC(=O)NCCOCCNc1cccc2c1C(=O)N(C1CCC(=O)NC1=O)C2=O (stereo not shown) [Example 6, N-(2-{2-[2-(2,6-Dioxo-3-piperidyl)-1,3-dioxo-4-isoindolinylamino]ethoxy}ethyl)15-{[(3-{5-carbamoyl-2-[(1-ethyl-3-methyl-5-pyrazolyl)carbonylimino]-3-methyl-2,3-dihydro-1H-1 ,3-benzimidazol-1-yl}-1-(2-{5-carbamoyl-2-[(1-ethyl-3-methyl-5-pyrazolyl)carbonylimino]-3-methyl-2,3-dihydro-1H-1 ,3-benzimidazol-1-yl}ethyl)propoxy)methyl]carbonylamino}-4,7,10,13-tetraoxapentadecanamide] | 200 to 1000 nM | 2.6 nM | – | – |
| CCn1nc(C)cc1C(=O)N=c1n(C)c2cc(C(N)=O)ccc2n1CCC(CCn1c(=NC(=O)c2cc(C)nn2CC)n(C)c2cc(C(N)=O)ccc21)OCC(=O)NCCOCCOCCOCCOCCC(=O)NCCOCCOCCOCCNc1cccc2c1C(=O)N(C1CCC(=O)NC1=O)C2=O (stereo not shown) [Example 11, N-{2-[2-(2-{2-[2-(2,6-Dioxo-3-piperidyl)-1,3-dioxo-4-isoindolinylamino]ethoxy}ethoxy)ethoxy]ethyl}15-{[(3-{5-carbamoyl-2-[(1-ethyl-3-methyl-5-pyrazolyl)carbonylimino]-3-methyl-2,3-dihydro-1H-1,3-benzimidazol-1-yl}-1-(2-{5-carbamoyl-2-[(1-ethyl-3-methyl-5-pyrazolyl)carbonylimino]-3-methyl-2,3-dihydro-1H-1,3-benzimidazol-1-yl}ethyl)propoxy)methyl]carbonylamino}-4,7,10,13-tetraoxapentadecanamide] | < 200 nM | 5.3 nM | – | – |
| CCn1nc(C)cc1C(=O)N=c1n(C)c2cc(C(N)=O)ccc2n1CCC(CCn1c(=NC(=O)c2cc(C)nn2CC)n(C)c2cc(C(N)=O)ccc21)OCC(=O)NCCOCCOCCNc1cccc2c1C(=O)N(C1CCC(=O)NC1=O)C2=O (stereo not shown) [Example 12, 1-(3-{[N-2-(2-{2-[2-(2,6-Dioxo-3-piperidyl)-1,3-dioxo-4-isoindolinylamino]ethoxy}ethoxy)ethylcarbamoyl]methoxy}-5-{5-carbamoyl-2-[(1-ethyl-3-methyl-5-pyrazolyl)carbonylimino]-3-methyl-2,3-dihydro-1H-1,3-benzimidazol-1-yl}pentyl)-2-[(1-ethyl-3-methyl-5-pyrazolyl)carbonylimino]-3-methyl-2,3-dihydro-1H-1 ,3-benzimidazole-5-carboxamide] | – | – | 2.1 nM | – |
| CCn1nc(C)cc1C(=O)/N=c1\n(C)c2cc(C(N)=O)ccc2n1CCC(CCn1/c(=N/C(=O)c2cc(C)nn2CC)n(C)c2cc(C(N)=O)ccc21)OCC(=O)NCCOCCOCC(=O)N[C@H](C(=O)N1C[C@H](O)C[C@H]1C(=O)NCc1ccc(-c2scnc2C)cc1)C(C)(C)C (stereo partly shown) [Example 15] | – | – | 1.7 nM | – |
| CCn1nc(C)cc1C(=O)N=c1n(C)c2cc(C(N)=O)ccc2n1CCC(CCn1c(=NC(=O)c2cc(C)nn2CC)n(C)c2cc(C(N)=O)ccc21)OCC(=O)NCCOCCOCCOCCOCCC(=O)NCCOCCOCCOCCOCCOc1cccc(C(=O)c2csc([C@@H]3CCCN3C(=O)[C@@H](NC(=O)[C@H](C)NC)C3CCCCC3)n2)c1 (stereo partly shown) [Example 17] | – | – | 7.9 nM | – |
| CCn1nc(C)cc1C(=O)N=c1n(C)c2cc(C(N)=O)ccc2n1CCC(CCn1c(=NC(=O)c2cc(C)nn2CC)n(C)c2cc(C(N)=O)ccc21)OCC(=O)NCCOCCOCCOCCOCCC(=O)NCCOCCOCCNc1cccc2c1C(=O)N(C1CCC(=O)NC1=O)C2=O (stereo not shown) [Example 23, N-[2-(2-{2-[2-(2,6-Dioxo-3-piperidyl)-1,3-dioxo-4-isoindolinylamino]ethoxy}ethoxy)ethyl]15-{[(3-{5-carbamoyl-2-[(1-ethyl-3-methyl-5-pyrazolyl)carbonylimino]-3-methyl-2,3-dihydro-1H-1,3-benzimidazol-1-yl}-1-(2-{5-carbamoyl-2-[(1-ethyl-3-methyl-5-pyrazolyl)carbonylimino]-3-methyl-2,3-dihydro-1H-1,3-benzimidazol-1-yl}ethyl)propoxy)methyl]carbonylamino}-4,7,10,13-tetraoxapentadecanamide] | 200 to 1000 nM | 2.9 nM | – | – |
| CCn1nc(C)cc1C(=O)N=c1n(C)c2cc(C(N)=O)ccc2n1CCC(CCn1c(=NC(=O)c2cc(C)nn2CC)n(C)c2cc(C(N)=O)ccc21)OCC(=O)N1CCOC[C@@H]1c1ccccc1 (stereo partly drawn) [Example A30, 1-(3-{2-[(S)-3-Phenyl-4-morpholinyl]-2-oxoethoxy}-5-{5-carbamoyl-2-[(1-ethyl-3-methyl-5-pyrazolyl)carbonylimino]-3-methyl-2,3-dihydro-1H-1,3-benzimidazol-1-yl}pentyl)-2-[(1-ethyl-3-methyl-5-pyrazolyl)carbonylimino]-3-methyl-2,3-dihydro-1H-1,3-benzimidazole-5-carboxamide] | – | – | – | STING, TBK1 and IRF1 phosphorylation (STING [4]; 5 µM for 15 min prior to 300 nM diABZI): lower compared to cells treated with diABZI c3 alone; STING, TBK1 and IRF1 phosphorylation (STING [4]; 5 µM for 15 min prior to 8 µg/mL cGAMP): lower compared to cells treated with cGAMP alone; phosphorylation of STING, IRF1 or TBK1 (agonism) (STING [4]; compound as single agent, no activation): no phosphorylation of STING, IRF1 or TBK1 was observed |
